One data set is described as follows: in vivo. The settings on record: male, C57BL/6J, mouse.
Data set [1] can be described thus: Cytotoxicity assay in MRC5 cells without viral infection (CellTiter Glo). The class given is cell-based. The note with it: human, no viral infection. The text has this:
The calculation formulas were as below: […]
Background: Cellular ATP, detected with luciferase, serves as a proxy for viable cell number.

In another data set the test system is HCoV OC43. The data set is described as follows: In vitro anti-coronavirus activity using a cytopathic model (CPE, CellTiter Glo). The note with it: Betacoronavirus 1, OC43, MRC5, 120 h. On the technique in general: Damage to the host cells serves as the signal in cytopathic effect assays.
The next data set has as its target SARS-COV-2 Mpro (Severe acute respiratory syndrome coronavirus 2, UniProt P0DTD1). The data set is described as follows: In vitro inhibitory activity against Mpro protease of novel coronavirus (fluorescence substrate assay). The class given is biochemical. The settings on record: 25 nM Mpro protein, 25 μM substrate.
The conditions of data set [2]: male, C57BL/6J, mouse, in vivo.

pEC50, pIC50: −log10 of the molar value. Like-named read-outs stand apart in the source and are kept apart here. A value given as a limit tells only on which side of the number the result lay.

In the case of `O=C(NC1CCCC1)C(=O)[C@H](C[C@@H]1CCNC1=O)NC(=O)[C@@H]1[C@H]2CCC[C@H]2CN1C(=O)[C@@H](NC(=O)C(F)(F)F)C1CCCCC1` [Compound 1], in “in vivo” (iv, 3 mg/kg), the area under the curve AUC(0-t) worked out at 7.79 µM·h, the Vd came out at 1.38 L/kg, the clearance is 10.1 mL/min/kg and the concentration at 0.083 h came to 6770 nM. In “in vivo” (iv, 3 mg/kg), this molecule yielded a concentration at 0.25 h of 5530 nM, a concentration at 0.5 h of 3930 nM, a concentration at 1 h of 1960 nM and a concentration at 2 h of 867 nM. Further, in “in vivo” (iv, 3 mg/kg), the concentration at 4 h amounted to 293 nM, the concentration at 8 h is 89.7 nM, the concentration at 24 h came out at 6.59 nM and the half-life was 3.8 h. Further, in “in vivo” (po, 10 mg/kg), the AUC(0-t) was determined as 5.7 µM·h, the Cmax turned out to be 1290 nM, the Tmax was found to be 2 h and the bioavailability is 22%. For the same molecule, in the data set “in vivo” (po, 10 mg/kg), the concentration at 0.25 h was 533 nM, the concentration at 0.5 h worked out at 706 nM, the concentration at 1 h came to 952 nM and the concentration at 2 h came to 1290 nM. Also, in “in vivo” (po, 10 mg/kg), the concentration at 4 h stood at 661 nM, the concentration at 6 h turned out to be 291 nM, the concentration at 8 h was 187 nM and the concentration at 24 h came out at 2.69 nM. Besides, the half-life in the data set “in vivo” (po, 10 mg/kg) was 2.63 h. For the same molecule, the CC50 at 5 days in data set [1] was greater than 10000 nM. The molecule also showed a pEC50 in the data set on HCoV OC43 of 6.59.
In the case of `O=C(NCc1ccccc1)C(=O)[C@H](C[C@@H]1CCNC1=O)NC(=O)[C@@H]1[C@H]2CCC[C@H]2CN1C(=O)[C@@H](NC(=O)C(F)(F)F)C1CCCCC1` [Compound 2], the pIC50 against SARS-COV-2 Mpro was 7.96. In addition, the CC50 at 5 days in data set [1] is greater than 10000 nM. In the data set with HCoV OC43, this molecule had a negative-log EC50 (pEC50) of 6.43.
As for `CC(C)(C)NC(=O)C(=O)[C@H](C[C@@H]1CCNC1=O)NC(=O)[C@@H]1[C@H]2CCC[C@H]2CN1C(=O)[C@@H](NC(=O)C(F)(F)F)C1CCC1` [Compound 4], the negative logarithm of the IC50 (pIC50) against SARS-COV-2 Mpro was 6.98. In addition, the CC50 at 5 days in data set [1] was greater than 10000 nM. Besides, the negative-log EC50 (pEC50) with HCoV OC43 is 6.08.
The molecule `CC(C)(C)NC(=O)C(=O)[C@H](C[C@@H]1CCNC1=O)NC(=O)[C@@H]1[C@H]2CCC[C@H]2CN1C(=O)[C@@H](NC(=O)C(F)(F)F)C1CCCC1` [Compound 5] gave a pIC50 at SARS-COV-2 Mpro of 7.30. In data set [1], this molecule registered a half-maximal cytotoxic concentration (CC50) at 5 days greater than 10000 nM. In the data set with HCoV OC43, this molecule showed a pEC50 of 6.43.
With `CC(C)(C)NC(=O)C(=O)[C@H](C[C@@H]1CCNC1=O)NC(=O)[C@@H]1[C@H]2CCC[C@H]2CN1C(=O)[C@@H](NC(=O)C(F)(F)F)C1CCCCC1` [Compound 3], the negative-log IC50 (pIC50) at SARS-COV-2 Mpro is 7.60. This molecule displayed an AUC(0-t) in the data set “in vivo” (iv, 3 mg/kg) of 30.6 µM·h. Besides, in “in vivo” (po, 10 mg/kg), the exposure AUC(0-t) is 33 µM·h, the Tmax was 1.5 h, the bioavailability was found to be 32% and the half-life was 5.4 h. In addition, in data set [2] (iv, 3 mg/kg), the Cl is 2.50 mL/min/kg, the T1/2 is 6.24 h and the distribution volume (Vdss) was 1.27 L/kg. Moreover, the Cmax in data set [2] (po, 10 mg/kg) turned out to be 4810 nM. Besides, the CC50 at 5 days in data set [1] was greater than 10000 nM. Besides, the pEC50 in the data set with HCoV OC43 was 6.84.
For the molecule `CC(C)(C)[C@H](NC(=O)C(F)(F)F)C(=O)N1C[C@H]2[C@@H]([C@H]1C(=O)N[C@H](C#N)CC1CCNC1=O)C2(C)C` (stereo partly shown) [PF-07321332, reference compound], in “in vivo” (iv, 3 mg/kg), the exposure AUC(0-t) is 3.33 µM·h, the Vd is 0.456 L/kg, the clearance stood at 30.2 mL/min/kg and the half-life is 0.71 h. In the data set “in vivo” (po, 10 mg/kg), the exposure AUC(0-t) amounted to 3.58 µM·h, the Cmax came to 2720 nM, the Tmax was 0.292 h and the bioavailability amounted to 32.7%. The half-life in the data set “in vivo” (po, 10 mg/kg) was 1.1 h.
As to `CC1([C@H](NC(=O)C(F)(F)F)C(=O)N2C[C@@H]3CCC[C@@H]3[C@H]2C(=O)N[C@@H](C[C@@H]2CCNC2=O)C(=O)C(=O)NC2CCCC2)CCCCC1` [Compound 6], the pIC50 against SARS-COV-2 Mpro was 7.92.

One may read the AUC(0-t) as exposure summed from dosing to a finite time, without extrapolation to infinity. Low values mean low exposure, high ones high exposure. As usually defined, the Vd is a proportionality between amount in the body and measured concentration, not a real space. Read a low Vd as little distribution into tissue. One may read the clearance as a measure of how efficiently the substance is removed, as volume per time. A lower clearance goes with inefficient removal. As a reminder, the half-life is the time needed for the level to fall by half in the phase considered. Low values mean fast loss, high ones slow loss. Usually Cmax stands for the highest concentration seen after dosing. For orientation: Tmax means the time from dosing to the highest level. For orientation: bioavailability means dose-corrected exposure relative to a reference, in per cent. As usually defined, the CC50 is the concentration giving 50% cytotoxicity. A low value points to greater toxicity to the cells. Usually pEC50 stands for the EC50 on a negative log10 scale, so that one unit is a factor of ten. Low readings indicate a large EC50, high ones a small EC50. Usually pIC50 stands for the negative decadic logarithm of the IC50, by convention in mol/L. A lower pIC50 goes with a high IC50. One may read the Vdss as the apparent volume that relates the amount in the body to the concentration in plasma or blood. Lower therefore signals little distribution into tissue.

The record behind these values is US20240287043A1, “KETOAMIDE DERIVATIVE AND APPLICATION THEREOF” (GUANGDONG RAYNOVENT BIOTECH CO., LTD., priority 2021, published 2024).
